From paper PMC11897524 (Frontiers in Pharmacology, 2025)
pIC50: −log10 of the molar value.

Assays:
Experiment in all cases: SelectScreen Z′-LYTE kinase assay
Format in all cases: biochemical
NTRK3 = NTRK3 (Homo sapiens, UniProt Q16288)
Procedure: (§1) The kinase selectivity profile of BST-4 was performed by the SelectScreen kinase profiling service (Thermo Fisher Scientific). Kinase selectivity assay was performed using Z′-LYTE ™ screening protocol kit. Briefly, the test compounds were screened in 1% DMSO (final). For 10-point titrations, perform a 3-fold dilution starting at a starting concentration of 50 µM. Then 2.5 µL 4× test compound, 2.4 µL kinase buffer, 5 µL 2× kinase mixture and 2.5 µL 4× ATP solution was added in black 384-well plate. After shaking for 30 s, the plates were incubated for 60 min at room temperature. Add developing reagent solution and shake the plate for 30 s, then incubate for 1 h at room temperature. The Fluorescence intensity per well was read using a fluorescence plate reader. SelectScreen® Kinase Profiling Service used XLfit from IDBS. The dose response curve was curve fit to model number 205 (sigmoidal dose-response model) and inhibition rates were calculated. 50% inhibition was used as a activity threshold. IC50 values were calculated based on curve fitting.

CSK = CSK (Homo sapiens, UniProt P41240)
Procedure: as §1

FGR = FGR (Homo sapiens, UniProt P09769)
Procedure: as §1

FLT4 = FLT4 (Homo sapiens, UniProt P35916)
Procedure: as §1

FLT1 = FLT1 (Homo sapiens, UniProt P17948)
Procedure: as §1

TYK2 = TYK2 (Homo sapiens, UniProt P29597)
Procedure: as §1

EPHA6 = EPHA6 (Homo sapiens, UniProt Q9UF33)
Procedure: as §1

YES1 = YES1 (Homo sapiens, UniProt P07947)
Procedure: as §1

DDR1 = DDR1 (Homo sapiens, UniProt Q08345)
Procedure: as §1

PTK2 = PTK2 (Homo sapiens, UniProt Q05397)
Chain of PTK2 (Q05397 whole entry): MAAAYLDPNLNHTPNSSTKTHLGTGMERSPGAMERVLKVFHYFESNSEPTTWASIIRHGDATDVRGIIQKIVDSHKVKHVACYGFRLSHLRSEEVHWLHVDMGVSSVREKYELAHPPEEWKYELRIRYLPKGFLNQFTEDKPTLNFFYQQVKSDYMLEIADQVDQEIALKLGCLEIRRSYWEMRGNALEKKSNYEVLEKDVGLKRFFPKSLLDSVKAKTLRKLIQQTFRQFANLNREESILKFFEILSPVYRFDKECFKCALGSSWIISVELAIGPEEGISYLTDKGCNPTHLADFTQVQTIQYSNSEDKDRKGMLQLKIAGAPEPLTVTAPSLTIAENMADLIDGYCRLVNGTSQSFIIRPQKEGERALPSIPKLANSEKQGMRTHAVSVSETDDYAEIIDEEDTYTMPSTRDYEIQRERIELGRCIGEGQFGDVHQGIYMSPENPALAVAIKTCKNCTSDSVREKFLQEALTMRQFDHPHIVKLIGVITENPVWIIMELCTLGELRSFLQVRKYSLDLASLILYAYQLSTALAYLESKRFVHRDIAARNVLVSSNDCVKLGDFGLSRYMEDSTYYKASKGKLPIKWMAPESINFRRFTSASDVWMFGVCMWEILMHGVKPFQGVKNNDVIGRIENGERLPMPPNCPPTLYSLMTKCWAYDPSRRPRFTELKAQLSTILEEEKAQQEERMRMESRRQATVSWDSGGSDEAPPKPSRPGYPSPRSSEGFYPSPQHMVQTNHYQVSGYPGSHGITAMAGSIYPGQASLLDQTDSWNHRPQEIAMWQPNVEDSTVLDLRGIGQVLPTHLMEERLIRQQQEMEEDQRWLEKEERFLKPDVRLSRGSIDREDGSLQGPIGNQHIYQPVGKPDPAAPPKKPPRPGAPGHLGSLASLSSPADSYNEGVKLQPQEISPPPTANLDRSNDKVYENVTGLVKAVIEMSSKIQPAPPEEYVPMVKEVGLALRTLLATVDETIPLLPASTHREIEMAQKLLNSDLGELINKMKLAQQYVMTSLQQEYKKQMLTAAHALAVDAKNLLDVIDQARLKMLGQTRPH
Procedure: as §1

TYRO3 = TYRO3 (Homo sapiens, UniProt Q06418)
Procedure: as §1

BMX = BMX (Homo sapiens, UniProt P51813)
Procedure: as §1

ERBB4 = ERBB4 (Homo sapiens, UniProt Q15303)
Procedure: as §1

LYN = LYN (Homo sapiens, UniProt P07948)
Procedure: as §1

EPHA7 = EPHA7 (Homo sapiens, UniProt Q15375)
Procedure: as §1

EGFR = EGFR (Homo sapiens, UniProt P00533)
Chain of EGFR (P00533 25-1210): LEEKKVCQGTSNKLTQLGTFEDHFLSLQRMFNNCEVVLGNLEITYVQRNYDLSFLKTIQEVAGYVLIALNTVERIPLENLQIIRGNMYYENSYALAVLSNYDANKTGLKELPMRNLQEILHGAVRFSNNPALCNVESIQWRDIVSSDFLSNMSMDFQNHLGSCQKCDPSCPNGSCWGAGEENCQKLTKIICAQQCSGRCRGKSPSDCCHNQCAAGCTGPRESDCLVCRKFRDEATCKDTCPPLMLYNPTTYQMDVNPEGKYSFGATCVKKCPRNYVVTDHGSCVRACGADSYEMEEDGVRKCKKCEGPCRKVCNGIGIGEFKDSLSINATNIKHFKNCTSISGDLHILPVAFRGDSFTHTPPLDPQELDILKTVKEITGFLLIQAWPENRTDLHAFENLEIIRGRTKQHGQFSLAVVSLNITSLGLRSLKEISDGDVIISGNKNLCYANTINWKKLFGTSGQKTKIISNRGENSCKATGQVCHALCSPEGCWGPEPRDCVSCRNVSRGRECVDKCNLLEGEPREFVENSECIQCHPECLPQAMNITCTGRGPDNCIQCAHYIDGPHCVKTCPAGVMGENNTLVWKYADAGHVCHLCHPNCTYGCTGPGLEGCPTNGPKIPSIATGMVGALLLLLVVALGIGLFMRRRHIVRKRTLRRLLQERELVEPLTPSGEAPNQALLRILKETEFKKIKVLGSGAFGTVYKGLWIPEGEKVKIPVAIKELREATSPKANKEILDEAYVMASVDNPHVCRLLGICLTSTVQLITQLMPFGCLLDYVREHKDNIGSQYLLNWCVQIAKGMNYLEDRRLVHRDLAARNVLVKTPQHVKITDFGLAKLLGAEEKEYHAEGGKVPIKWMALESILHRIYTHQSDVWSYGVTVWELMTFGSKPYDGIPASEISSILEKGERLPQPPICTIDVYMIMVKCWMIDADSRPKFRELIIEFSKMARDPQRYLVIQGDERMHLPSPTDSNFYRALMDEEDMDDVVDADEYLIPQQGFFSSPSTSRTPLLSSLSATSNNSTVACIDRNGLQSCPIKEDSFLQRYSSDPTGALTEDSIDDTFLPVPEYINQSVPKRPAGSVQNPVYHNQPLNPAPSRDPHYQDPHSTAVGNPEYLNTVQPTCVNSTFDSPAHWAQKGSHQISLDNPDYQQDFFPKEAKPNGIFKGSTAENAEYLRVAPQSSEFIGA
Procedure: as §1

ROS1 = ROS1 (Homo sapiens, UniProt P08922)
Procedure: as §1

TNK2 = TNK2 (Homo sapiens, UniProt Q07912)
Procedure: as §1

BTK = BTK (Homo sapiens, UniProt Q06187)
Chain of BTK (Q06187 whole entry): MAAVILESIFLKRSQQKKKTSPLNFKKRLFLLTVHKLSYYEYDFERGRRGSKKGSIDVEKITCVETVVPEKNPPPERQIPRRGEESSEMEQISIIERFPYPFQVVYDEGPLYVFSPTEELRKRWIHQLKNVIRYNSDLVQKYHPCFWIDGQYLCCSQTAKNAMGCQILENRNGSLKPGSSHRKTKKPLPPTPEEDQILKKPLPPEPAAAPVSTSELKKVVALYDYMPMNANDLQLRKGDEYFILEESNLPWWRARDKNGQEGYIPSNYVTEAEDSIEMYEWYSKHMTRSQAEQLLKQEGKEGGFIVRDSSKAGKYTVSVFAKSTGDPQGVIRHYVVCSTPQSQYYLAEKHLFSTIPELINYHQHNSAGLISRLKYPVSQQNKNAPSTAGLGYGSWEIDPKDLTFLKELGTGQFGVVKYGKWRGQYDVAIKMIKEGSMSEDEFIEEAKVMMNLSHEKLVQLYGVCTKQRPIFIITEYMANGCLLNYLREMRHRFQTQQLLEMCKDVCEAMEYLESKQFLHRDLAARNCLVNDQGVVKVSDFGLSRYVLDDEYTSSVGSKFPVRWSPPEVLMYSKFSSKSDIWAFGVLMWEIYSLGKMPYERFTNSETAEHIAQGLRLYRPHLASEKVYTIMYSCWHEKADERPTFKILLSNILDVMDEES
Procedure: as §1

DDR2 = DDR2 (Homo sapiens, UniProt Q16832)
Chain of DDR2 (Q16832 22-855): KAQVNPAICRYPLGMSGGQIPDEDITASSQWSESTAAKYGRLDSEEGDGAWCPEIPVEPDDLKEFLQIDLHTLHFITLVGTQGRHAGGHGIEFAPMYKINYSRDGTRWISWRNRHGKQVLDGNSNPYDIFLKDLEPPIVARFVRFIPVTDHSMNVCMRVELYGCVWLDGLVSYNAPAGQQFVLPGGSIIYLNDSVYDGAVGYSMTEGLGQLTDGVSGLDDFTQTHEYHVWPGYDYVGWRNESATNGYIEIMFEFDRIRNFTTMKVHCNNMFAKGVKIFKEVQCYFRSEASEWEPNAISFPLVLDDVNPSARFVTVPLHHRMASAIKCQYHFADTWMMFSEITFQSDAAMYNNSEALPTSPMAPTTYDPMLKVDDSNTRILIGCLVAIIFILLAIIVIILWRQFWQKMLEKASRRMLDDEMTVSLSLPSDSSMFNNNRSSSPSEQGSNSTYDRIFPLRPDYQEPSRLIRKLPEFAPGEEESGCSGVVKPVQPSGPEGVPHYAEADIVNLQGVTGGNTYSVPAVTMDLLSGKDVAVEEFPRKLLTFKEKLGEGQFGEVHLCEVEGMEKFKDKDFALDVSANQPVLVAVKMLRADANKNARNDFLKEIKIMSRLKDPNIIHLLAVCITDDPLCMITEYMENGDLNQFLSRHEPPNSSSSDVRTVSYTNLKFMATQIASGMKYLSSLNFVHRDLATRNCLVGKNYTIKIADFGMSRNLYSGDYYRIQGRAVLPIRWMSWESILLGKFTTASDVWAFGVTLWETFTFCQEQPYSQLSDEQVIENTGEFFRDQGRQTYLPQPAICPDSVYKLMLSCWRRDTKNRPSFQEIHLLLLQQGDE
Procedure: as §1

TXK = TXK (Homo sapiens, UniProt P42681)
Procedure: as §1

PDGFRB = PDGFRB (Homo sapiens, UniProt P09619)
Procedure: as §1

FLT3 = FLT3 (Homo sapiens, UniProt P36888)
Procedure: as §1

EPHA1 = EPHA1 (Homo sapiens, UniProt P21709)
Procedure: as §1

JAK1 = JAK1 (Homo sapiens, UniProt P23458)
Chain of JAK1 (P23458 whole entry): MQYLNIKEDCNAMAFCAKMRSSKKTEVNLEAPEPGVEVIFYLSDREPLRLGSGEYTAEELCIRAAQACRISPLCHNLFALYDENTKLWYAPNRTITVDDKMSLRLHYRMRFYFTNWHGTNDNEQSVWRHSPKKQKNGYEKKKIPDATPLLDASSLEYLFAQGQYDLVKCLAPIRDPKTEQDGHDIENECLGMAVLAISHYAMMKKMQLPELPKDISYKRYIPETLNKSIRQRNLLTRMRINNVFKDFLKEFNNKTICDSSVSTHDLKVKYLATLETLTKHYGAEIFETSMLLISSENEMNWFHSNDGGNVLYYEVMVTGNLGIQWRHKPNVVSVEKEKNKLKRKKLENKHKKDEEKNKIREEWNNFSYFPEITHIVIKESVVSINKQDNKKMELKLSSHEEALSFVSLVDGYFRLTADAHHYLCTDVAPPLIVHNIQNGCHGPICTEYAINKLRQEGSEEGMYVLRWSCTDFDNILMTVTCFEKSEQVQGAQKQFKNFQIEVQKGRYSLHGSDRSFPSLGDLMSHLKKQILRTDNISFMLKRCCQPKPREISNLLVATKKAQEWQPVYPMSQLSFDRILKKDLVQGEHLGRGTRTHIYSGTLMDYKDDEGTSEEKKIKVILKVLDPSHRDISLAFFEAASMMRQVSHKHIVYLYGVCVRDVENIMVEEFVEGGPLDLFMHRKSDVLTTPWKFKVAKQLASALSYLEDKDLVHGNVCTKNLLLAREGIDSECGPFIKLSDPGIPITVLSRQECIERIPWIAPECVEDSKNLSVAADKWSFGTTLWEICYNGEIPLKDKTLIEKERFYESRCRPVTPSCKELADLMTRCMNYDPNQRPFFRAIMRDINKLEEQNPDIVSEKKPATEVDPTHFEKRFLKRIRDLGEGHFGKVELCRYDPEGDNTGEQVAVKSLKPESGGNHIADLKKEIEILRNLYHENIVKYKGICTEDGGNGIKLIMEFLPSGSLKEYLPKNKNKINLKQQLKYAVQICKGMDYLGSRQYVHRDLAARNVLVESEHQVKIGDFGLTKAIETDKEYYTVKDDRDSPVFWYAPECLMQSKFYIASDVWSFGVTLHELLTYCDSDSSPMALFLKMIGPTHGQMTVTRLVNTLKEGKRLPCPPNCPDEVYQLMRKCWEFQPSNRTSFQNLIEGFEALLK
Procedure: as §1

SRMS = SRMS (Homo sapiens, UniProt Q9H3Y6)
Procedure: as §1

EPHA4 = EPHA4 (Homo sapiens, UniProt P54764)
Procedure: as §1

BLK = BLK (Homo sapiens, UniProt P51451)
Procedure: as §1

MERTK = MERTK (Homo sapiens, UniProt Q12866)
Procedure: as §1

TEC = TEC (Homo sapiens, UniProt P42680)
Procedure: as §1

JAK3 = JAK3 (Homo sapiens, UniProt P52333)
Procedure: as §1

FGFR2 = FGFR2 (Homo sapiens, UniProt P21802)
Procedure: as §1

## CCS(=O)(=O)Cc1cnc(Oc2c(F)cc(F)cc2OCCCCOc2ccc(/C=C/c3cc(OC)cc(OC)c3)cc2)c(-c2cc(C)c3c(=O)[nH]ccn23)c1 [BST-4]
NTRK3
  pIC50: < 5.00
  inhibition at 1 µM: 4.75%
CSK
  pIC50: < 5.00
  inhibition at 1 µM: 0.74%
FGR
  pIC50: < 5.00
  inhibition at 1 µM: 0.28%
FLT4
  pIC50: < 5.00
  inhibition at 1 µM: 1.82%
FLT1
  pIC50: < 5.00
  inhibition at 1 µM: 0.14%
TYK2
  pIC50: < 5.00
  inhibition at 1 µM: 5.33%
EPHA6
  pIC50: < 5.00
  inhibition at 1 µM: 0.26%
YES1
  pIC50: < 5.00
  inhibition at 1 µM: 1.22%
DDR1
  pIC50: < 5.00
  inhibition at 1 µM: 3.63%
PTK2
  pIC50: < 5.00
  inhibition at 1 µM: 1.48%
TYRO3
  pIC50: < 5.00
  inhibition at 1 µM: 0.04%
BMX
  pIC50: < 5.00
  inhibition at 1 µM: 3.05%
ERBB4
  pIC50: < 5.00
  inhibition at 1 µM: 0.78%
LYN
  pIC50: < 5.00
  inhibition at 1 µM: 1.96%
EPHA7
  pIC50: < 5.00
  inhibition at 1 µM: 0.91%
EGFR
  pIC50: < 5.00
  inhibition at 1 µM: 0.37%
ROS1
  pIC50: < 5.00
  inhibition at 1 µM: 0.97%
TNK2
  pIC50: < 5.00
  inhibition at 1 µM: 0.93%
BTK
  pIC50: < 5.00
  inhibition at 1 µM: 0.11%
DDR2
  pIC50: < 5.00
  inhibition at 1 µM: 0.7%
TXK
  pIC50: < 5.00
  inhibition at 1 µM: 0.09%
PDGFRB
  pIC50: < 5.00
  inhibition at 1 µM: 0.1%
FLT3
  pIC50: < 5.00
  inhibition at 1 µM: 0.52%
EPHA1
  pIC50: < 5.00
  inhibition at 1 µM: 0.02%
JAK1
  pIC50: < 5.00
  inhibition at 1 µM: 1.21%
SRMS
  pIC50: < 5.00
  inhibition at 1 µM: 0.53%
EPHA4
  pIC50: < 5.00
  inhibition at 1 µM: 0.58%
BLK
  pIC50: < 5.00
  inhibition at 1 µM: 0.54%
MERTK
  pIC50: < 5.00
  inhibition at 1 µM: 0.07%
TEC
  pIC50: < 5.00
  inhibition at 1 µM: 0.67%
JAK3
  pIC50: < 5.00
  inhibition at 1 µM: 0.39%
FGFR2
  pIC50: < 5.00
  inhibition at 1 µM: 0.45%
